The text below walks through data of US20240336630A1, “MAP4K1 INHIBITORS” (Blueprint Medicines Corporation, priority 2021, published 2024).

One experiment deals with T1, MAP4K1 (HPK1) (Homo sapiens, UniProt Q92918).
T1 construct: purchased Invitrogen
Nature of the experiment: Inhibition of MAP4K1 biochemical enzymatic activity (EZReader 2 electrophoretic mobility shift). Particulars: HPK1 (Invitrogen), S6K2tide 1.5 μM, 120 min; ATP 26 μM or 1000 μM, not stated which for Table 3. From the text: MAP4K1 (HPK1) and relevant off-target enzymatic activity was monitored using the Perkin Elmer electrophoretic mobility shift technology platform—the EZReader 2. […] Within the linear, steady-state phase of the kinase enzymatic reaction, the mixed pool of phosphorylated (product) and non-phosphorylated (substrate) peptides was passed through the microfluidic system of the PerkinElmer EZ Reader 2, under an applied electric potential difference. The presence of the phosphate group on the product peptide provided a difference in mass and charge between that of the substrate peptide, resulting in a separation of the substrate and product pools in the sample (Perrin et al. 2010). As the product and substrate peptide mixture passes the lasers within the instrument, these pools are detected (λex=488 nm, λem=568 nm) and resolved as separate peaks. The ratio between these peaks reflects the activity of the compound at that concentration, in that well, under those conditions.
Inhibitors were dissolved in 100% DMSO at a stock concentration of 10 mM. A 100×, 10-point, 4-fold serial dilution of each inhibitor was created in 100% DMSO either manually or on a Hamilton STAR liquid handler, starting at a relevant concentration, usually 1 mM. A volume of 0.130 μL of each concentration was transferred to the relevant wells of a 384-well plate (Greiner 781 201) in duplicate using a TTPLabtech Mosquito nano-litre dispenser. Using a Multidrop Combi, the remaining constituents of the kinase reaction were added to the 130 nL of dosed compound as follows (see table below for final reaction details):
Enzyme activity assays at the ^APPKM for ATP or 1 mM ATP: In each well of a 384-well plate, 0.1-15 nM of untreated enzyme was incubated in a total of 13 μL of buffer (100 mM HEPES pH 7.5, 0.015% Brij 35, 10 mM MgCl2, 1 mM DTT) with 1.5 μM fluorescent peptide and 20-1000 μM ATP, at 25° C., for 60-180 minutes in the presence or absence of a dosed concentration series of compound (1% DMSO final concentration). The kinase reactions were stopped by the addition of 70 μl of Stop buffer (100 mM HEPES pH 7.5, 0.015% Brij 35, 35 mM EDTA and 0.2% of Coating Reagent 3 (Caliper Lifesciences)). The plates were read on a Caliper EZReader 2 as described above.
In general terms: Mobility shift assays separate free from complexed probe on a gel.

Experiment [1] concerns Primary T Cell (expanded CD3+ T cells). Nature of the experiment: T cell enhancement of cytokines: IL2 measurement (HTRF) in expanded CD3+ T cells stimulated with anti-CD3/anti-CD28. It counts as cell-based. The conditions noted are these: Homo sapiens, plate-bound anti-CD3 and soluble anti-CD28, 24 h, read-out: IL-2 Primary T Cell EC50. The method, then:
T cells are isolated from whole blood of healthy donors by immunomagnetic negative selection following manufacture's protocol (StemCell Technologies, human T cell isolation kit). Purity of isolated cells is assessed by flow cytometry and yields 95-98% CD3^+ T cells. For expansion of T cells, 1×10^6 cells/well are plated in serum free cell expansion media (ThermoFisher) containing 30U of recombinant human IL2 (R&D) and stimulated with 25 ul of CD3/CD28 beads (Invitrogen) in 24 well plates for 3-4 days. T cells are then expanded in 175 cm flasks and maintained at a cell density of 1 to 2.5×10^6 cells/ml days by addition of ⅔ of fresh media every 2-3 days. After 10-14 days, cells are frozen in BamBanker freezing media (Thermo) and stored in liquid nitrogen.
For IL2 measurement, expanded CD3^+ T cells are dispensed at 100K cells/well (cultured in X-VIVO 10 Serum-free media) and are stimulated with plate-bound anti-CD3 and soluble anti-CD28 in the presence of vehicle or compound of the disclosure at various concentrations for 24 h. As outlined in the manufacturer's protocol (Cisbio), 16 μL of conditioned media is transferred to a white 384-well low volume plate. Following a 24 h incubation with the anti-IL2 antibodies, the homogenous time resolved fluorescence (HTRF) is measured.
In general terms: TR-FRET usually uses a lanthanide donor and a delayed reading to cut background.

T1 sequence (Q92918 whole entry): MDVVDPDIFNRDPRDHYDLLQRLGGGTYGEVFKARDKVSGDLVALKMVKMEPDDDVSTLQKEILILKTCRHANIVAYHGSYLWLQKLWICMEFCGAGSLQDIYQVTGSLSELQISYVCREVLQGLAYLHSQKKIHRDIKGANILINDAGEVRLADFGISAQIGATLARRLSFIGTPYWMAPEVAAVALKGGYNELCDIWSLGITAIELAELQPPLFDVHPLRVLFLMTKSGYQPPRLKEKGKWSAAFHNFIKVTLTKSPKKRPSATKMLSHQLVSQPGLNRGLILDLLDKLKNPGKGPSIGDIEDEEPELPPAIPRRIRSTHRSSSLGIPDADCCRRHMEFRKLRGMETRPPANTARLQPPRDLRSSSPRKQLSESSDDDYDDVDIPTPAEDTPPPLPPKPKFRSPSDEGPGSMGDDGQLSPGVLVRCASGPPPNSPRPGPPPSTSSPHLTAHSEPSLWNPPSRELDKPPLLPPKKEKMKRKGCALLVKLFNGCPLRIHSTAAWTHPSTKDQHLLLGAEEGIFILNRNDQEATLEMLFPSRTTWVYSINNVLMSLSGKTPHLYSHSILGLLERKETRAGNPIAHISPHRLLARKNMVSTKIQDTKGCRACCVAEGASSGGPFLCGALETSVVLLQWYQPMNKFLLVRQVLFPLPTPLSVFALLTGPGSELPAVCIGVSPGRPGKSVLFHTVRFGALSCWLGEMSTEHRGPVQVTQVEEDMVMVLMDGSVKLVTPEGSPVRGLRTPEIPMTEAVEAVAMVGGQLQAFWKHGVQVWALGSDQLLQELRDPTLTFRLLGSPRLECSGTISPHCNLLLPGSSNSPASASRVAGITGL

Broadly, the IC50 is the point on the concentration scale where inhibition reaches its midpoint. A word on the EC50: it is the midpoint of the concentration-response curve. For `CC[C@@](C)(O)c1cnc(OC2CC2)c2cnc(Nc3ccc4c(n3)[C@@H](C)C(C)(C)OC4=O)cc12` (single isomer, unassigned) [Compound 31], on MAP4K1 (HPK1), the IC50 turned out to be 0.00042 µM. Further, the EC50 in experiment [1] worked out at 0.047 µM.
`CC[C@](C)(O)c1cnc(OC2CC2)c2cnc(Nc3ccc4c(n3)C(C)(C)[C@@H](C)OC4=O)cc12` [Compound 34]: the half-maximal inhibitory concentration (IC50) on MAP4K1 (HPK1) came to 0.00253 µM. Further, the EC50 in experiment [1] was 0.132 µM.
The like results for `C[C@@H]1c2nc(Nc3cc4c(C(C)(C)O)cnc(O[C@H]5C[C@@H](S(C)(=O)=O)C5)c4cn3)ccc2C(=O)OC1(C)C` [Compound 60] were, in that order, 0.00029 µM and 0.065 µM.
The like results for `CC[C@](C)(O)c1cnc(OC2CC2)c2cnc(Nc3ccc4c(n3)C3(CC3)C(C)(C)OC4=O)cc12` (single isomer, unassigned) [Compound 40] were, in that order, 0.00209 µM and 0.169 µM.
The like results for `CC[C@](C)(O)c1cnc(OC2CC2)c2cnc(Nc3ccc4c(n3)C3(CC3)[C@@H](C)OC4=O)cc12` (single isomer, unassigned) [Compound 27] were, in that order, 0.0017 µM and 0.042 µM.
As to `CC[C@@](C)(O)c1cnc(O[C@H]2C[C@@H](S(C)(=O)=O)C2)c2cnc(Nc3ccc4c(n3)[C@@H](C)[C@H](C)OC4=O)cc12` (single isomer, unassigned) [Compound 61], the IC50 on MAP4K1 (HPK1) worked out at 0.00039 µM. In experiment [1], the half-maximal effective concentration (EC50) stood at 0.023 µM.
